ChEMBL document CHEMBL3272278, “Electronic factors in the structure-activity relationship of some 1,4-benzodiazepin-2-ones” (1977)
Activity calls are given as the source filed them. The calls are words filed in the database; no cut-off is given here.

Assays:
Type in all cases: functional
Felis catus = species: Felis catus; assay: Muscle relaxant activity in cat suspended by scruff of neck assessed as relaxation of body and hind legs
Mus musculus [1] = species: Mus musculus; assay: Sedative activity in mouse
Mus musculus [2] = species: Mus musculus; assay: Anticonvulsion activity in mouse assessed as protection against pentylenetetrazole-induced convulsion
Mus musculus [3] = species: Mus musculus; assay: Taming activity in mouse assessed as suppression of electrical current-induced aggressive behavior by foot-shock test
Mus musculus [4] = species: Mus musculus; assay: Muscle relaxant activity in mouse

SMILES: O=C1CN=C(c2ccccc2)c2cc([N+](=O)[O-])ccc2N1 [NITRAZEPAM]
- log(1/MED) (Felis catus): 3.4487
- log(1/ED50) (Mus musculus [1]): 1.2726
- log(1/ED50) (Mus musculus [2]): 2.7497
- log(1/MED) (Mus musculus [3]): 1.7497
- log(1/ED50) (Mus musculus [4]): 1.2726

SMILES: CN(C)c1ccc2c(c1)C(c1ccccc1Cl)=NCC(=O)N2C
- log(1/MED) (Felis catus): 1.9131
- log(1/ED50) (Mus musculus [1]): 0.3391
- log(1/ED50) (Mus musculus [2]): 2.8162
- log(1/MED) (Mus musculus [3]): 0.6121
- log(1/ED50) (Mus musculus [4]): 0.3391

SMILES: CN1C(=O)CN=C(c2ccccc2F)c2cc([N+](=O)[O-])ccc21 [FLUNITRAZEPAM]
- log(1/MED) (Felis catus): 4.1945
- log(1/ED50) (Mus musculus [1]): 2.4955
- log(1/ED50) (Mus musculus [2]): 2.4164
- log(1/MED) (Mus musculus [3]): 2.5925
- log(1/ED50) (Mus musculus [4]): 2.4955

SMILES: O=C1CN=C(c2ccccc2Cl)c2cc(Cl)ccc2N1 [DELORAZEPAM]
- log(1/MED) (Felis catus): 3.4842
- log(1/ED50) (Mus musculus [1]): 0.4842
- log(1/ED50) (Mus musculus [2]): 2.8821
- log(1/MED) (Mus musculus [3]): 0.8821
- ED50 (Mus musculus [3]; Mus musculus): 2 mg/kg
- log(1/ED50) (Mus musculus [4]): 0.4842

SMILES: O=C1CN=C(c2ccccc2F)c2cc(Br)ccc2N1
- log(1/MED) (Felis catus): 3.8233
- log(1/ED50) (Mus musculus [1]): 1.5223
- log(1/ED50) (Mus musculus [2]): 2.8233
- log(1/MED) (Mus musculus [3]): 2.1244
- log(1/ED50) (Mus musculus [4]): 1.5223

SMILES: CN1C(=O)CN=C(c2ccccc2F)c2ccccc21 [RO-054520]
- log(1/MED) (Felis catus): 2.4281
- log(1/ED50) (Mus musculus [1]): 0.1271
- log(1/ED50) (Mus musculus [2]): 1.525
- log(1/MED) (Mus musculus [3]): 0.8261
- log(1/ED50) (Mus musculus [4]): 0.1271

SMILES: CN(C)c1ccc2c(c1)C(c1ccccc1)=NCC(=O)N2
- log(1/MED) (Felis catus): 1.4456
- Activity (Mus musculus [1]): inactive
- log(1/ED50) (Mus musculus [2]): 0.8224
- Activity (Mus musculus [3]): inactive
- Activity (Mus musculus [4]): inactive

SMILES: CSc1ccc2c(c1)C(c1ccccc1)=NCC(=O)N2C
- log(1/MED) (Felis catus): 2.4714
- log(1/ED50) (Mus musculus [1]): 0.7724
- log(1/ED50) (Mus musculus [2]): 0.5963
- log(1/MED) (Mus musculus [3]): 0.8693
- log(1/ED50) (Mus musculus [4]): 0.7724

SMILES: CN1C(=O)CN=C(c2ccccc2)c2cc(C#N)ccc21
- log(1/MED) (Felis catus): 2.7404
- log(1/ED50) (Mus musculus [1]): 1.1382
- log(1/ED50) (Mus musculus [2]): 2.4393
- log(1/MED) (Mus musculus [3]): 1.7404
- log(1/ED50) (Mus musculus [4]): 1.1382

SMILES: CN1C(=O)CN=C(c2ccccc2Cl)c2cc([N+](=O)[O-])ccc21 [RO-054082]
- log(1/MED) (Felis catus): 3.8188
- log(1/ED50) (Mus musculus [1]): 1.0407
- log(1/ED50) (Mus musculus [2]): 3.4386
- log(1/MED) (Mus musculus [3]): 2.1198
- log(1/ED50) (Mus musculus [4]): 1.0407

SMILES: COc1ccccc1C1=NCC(=O)Nc2ccc(Cl)cc21
- log(1/MED) (Felis catus): 2.4778
- log(1/ED50) (Mus musculus [1]): 0.0007
- log(1/ED50) (Mus musculus [2]): 1.6027
- log(1/MED) (Mus musculus [3]): 0.4778
- log(1/ED50) (Mus musculus [4]): 0.0007

SMILES: Cc1cc([N+](=O)[O-])cc2c1NC(=O)CN=C2c1ccccc1
- log(1/MED) (Felis catus): 2.7709
- log(1/ED50) (Mus musculus [1]): 1.1688
- log(1/ED50) (Mus musculus [2]): 1.5613
- log(1/MED) (Mus musculus [3]): 1.1688
- log(1/ED50) (Mus musculus [4]): 1.1688

SMILES: COc1cc2c(cc1Br)C(c1ccccc1)=NCC(=O)N2
- log(1/ED50) (Mus musculus [1]): 0.3616
- log(1/ED50) (Mus musculus [2]): 1.6626
- log(1/MED) (Mus musculus [3]): 0.6346
- log(1/ED50) (Mus musculus [4]): 0.3616

SMILES: COc1cccc(C2=NCC(=O)Nc3ccc(Cl)cc32)c1
- Activity (Mus musculus [1]): inactive
- log(1/ED50) (Mus musculus [2]): 2.2225
- Activity (Mus musculus [3]): inactive
- Activity (Mus musculus [4]): inactive

SMILES: O=C1CN=C(c2ccccc2)c2cc(Br)ccc2N1
- log(1/MED) (Felis catus): 2.7992
- log(1/ED50) (Mus musculus [1]): 1.1002
- log(1/ED50) (Mus musculus [2]): 2.1971
- log(1/MED) (Mus musculus [3]): 1.1971
- log(1/ED50) (Mus musculus [4]): 1.1002

SMILES: O=C1CN=C(c2ccccc2)c2ccc(Cl)cc2N1
- Activity (Mus musculus [1]): inactive
- log(1/ED50) (Mus musculus [2]): -0.0917
- Activity (Mus musculus [3]): inactive
- Activity (Mus musculus [4]): inactive

SMILES: O=C1CN=C(c2ccccc2[N+](=O)[O-])c2cc([N+](=O)[O-])ccc2N1
- Activity (Mus musculus [1]): inactive
- log(1/ED50) (Mus musculus [2]): 2.9691
- log(1/MED) (Mus musculus [3]): 0.9112
- Activity (Mus musculus [4]): inactive

SMILES: Cc1ccc2c(c1)C(c1ccccc1)=NCC(=O)N2
- Activity (Mus musculus [1]): inactive
- log(1/ED50) (Mus musculus [2]): 0.1549
- Activity (Mus musculus [3]): inactive
- Activity (Mus musculus [4]): inactive

SMILES: O=C1CN=C(c2ccccc2F)c2cc([N+](=O)[O-])ccc2N1
- log(1/MED) (Felis catus): 3.7767
- log(1/ED50) (Mus musculus [1]): 1.8736
- log(1/ED50) (Mus musculus [2]): 2.4934
- ED50 (Mus musculus [2]; Mus musculus): 0.3 mg/kg
- log(1/MED) (Mus musculus [3]): 2.1746
- log(1/ED50) (Mus musculus [4]): 1.8736

SMILES: CN1C(=O)CN=C(c2ccccc2)c2cc(Cl)ccc21 [DIAZEPAM]
- log(1/MED) (Felis catus): 3.153
- log(1/ED50) (Mus musculus [1]): 0.9769
- log(1/ED50) (Mus musculus [2]): 2.3079
- log(1/MED) (Mus musculus [3]): 1.454
- log(1/ED50) (Mus musculus [4]): 0.9769

SMILES: CN1C(=O)CN=C(c2ccccc2Cl)c2cc(Cl)ccc21
- log(1/MED) (Felis catus): 3.5037
- log(1/ED50) (Mus musculus [1]): 0.9016
- log(1/ED50) (Mus musculus [2]): 2.8804
- log(1/MED) (Mus musculus [3]): 1.5037
- log(1/ED50) (Mus musculus [4]): 0.9016

SMILES: Cc1cc2c(cc1C)C(c1ccccc1)=NCC(=O)N2
- Activity (Mus musculus [1]): inactive
- log(1/ED50) (Mus musculus [2]): 0.2978
- Activity (Mus musculus [3]): inactive
- Activity (Mus musculus [4]): inactive

SMILES: CN1C(=O)CN=C(c2ccc(Cl)cc2)c2cc(Cl)ccc21 [RO-54864]
- log(1/ED50) (Mus musculus [1]): 0.5037
- Activity (Mus musculus [2]): inactive
- Activity (Mus musculus [3]): inactive
- log(1/ED50) (Mus musculus [4]): 0.5037

SMILES: Cc1cc(C)c2c(c1)C(c1ccccc1)=NCC(=O)N2
- log(1/ED50) (Mus musculus [1]): -0.2316
- Activity (Mus musculus [2]): inactive
- log(1/MED) (Mus musculus [3]): 0.4216
- log(1/ED50) (Mus musculus [4]): -0.2316

SMILES: O=C1CN=C(c2ccccc2F)c2cc(Cl)ccc2N1 [N-DESALKYL-2-OXOQUAZEPAM]
- log(1/MED) (Felis catus): 3.7611
- log(1/ED50) (Mus musculus [1]): 0.858
- log(1/ED50) (Mus musculus [2]): 3.4601
- log(1/MED) (Mus musculus [3]): 1.7611
- log(1/ED50) (Mus musculus [4]): 0.858

SMILES: N#Cc1ccc2c(c1)C(c1ccccc1F)=NCC(=O)N2
- log(1/MED) (Felis catus): 3.7466
- log(1/ED50) (Mus musculus [1]): 0.5705
- log(1/ED50) (Mus musculus [2]): 2.6327
- log(1/MED) (Mus musculus [3]): 1.7466
- log(1/ED50) (Mus musculus [4]): 0.5705

SMILES: O=C1CN=C(c2ccccc2)c2cc(F)ccc2N1 [RO-053061]
- log(1/MED) (Felis catus): 1.8028
- log(1/ED50) (Mus musculus [1]): 0.2287
- Activity (Mus musculus [2]): inactive
- log(1/MED) (Mus musculus [3]): 0.4048
- log(1/ED50) (Mus musculus [4]): 0.2287

SMILES: O=C1CN=C(c2ccccc2)c2c(Cl)cccc2N1
- Activity (Mus musculus [1]): inactive
- log(1/ED50) (Mus musculus [2]): 0.1311
- Activity (Mus musculus [3]): inactive
- Activity (Mus musculus [4]): inactive

SMILES: CCSc1ccc2c(c1)C(c1ccccc1)=NCC(=O)N2
- log(1/ED50) (Mus musculus [2]): 0.2702
- Activity (Mus musculus [3]): inactive

SMILES: O=C1CN=C(c2ccccc2)c2ccc(C(F)(F)F)cc2N1
- log(1/ED50) (Mus musculus [1]): -0.1703
- Activity (Mus musculus [3]): inactive
- log(1/ED50) (Mus musculus [4]): -0.1703

SMILES: O=C1CN=C(c2cccc([N+](=O)[O-])c2)c2cc([N+](=O)[O-])ccc2N1
- log(1/ED50) (Mus musculus [1]): -0.0888
- log(1/ED50) (Mus musculus [2]): 0.8142
- Activity (Mus musculus [3]): inactive
- log(1/ED50) (Mus musculus [4]): -0.0888

SMILES: CS(=O)(=O)c1ccc2c(c1)C(c1ccccc1)=NCC(=O)N2
- Activity (Mus musculus [1]): inactive
- log(1/ED50) (Mus musculus [2]): 0.2811
- Activity (Mus musculus [3]): inactive
- Activity (Mus musculus [4]): inactive

SMILES: COc1ccc(C2=NCC(=O)Nc3ccc(Cl)cc32)cc1
- Activity (Mus musculus [1]): inactive
- log(1/ED50) (Mus musculus [2]): -0.4253
- Activity (Mus musculus [3]): inactive
- Activity (Mus musculus [4]): inactive

SMILES: O=C1CN=C(c2ccccc2)c2cccc([N+](=O)[O-])c2N1
- log(1/ED50) (Mus musculus [1]): -0.2503
- Activity (Mus musculus [2]): inactive
- Activity (Mus musculus [3]): inactive
- log(1/ED50) (Mus musculus [4]): -0.2503

SMILES: Cc1cccc(C2=NCC(=O)Nc3ccc(Cl)cc32)c1
- Activity (Mus musculus [1]): inactive
- log(1/ED50) (Mus musculus [2]): 0.8519
- Activity (Mus musculus [3]): inactive
- Activity (Mus musculus [4]): inactive
